Molecular target: DOT1L(1-416) (Homo sapiens, UniProt Q8TEK3)
Assay: Determination of IC50: DOT1L(1-416) methyltransferase assay, 3H-SAM, oligonucleosome substrate, Flashplate
Type: biochemical
Settings: class symbols; read-out: DOT1L IC50
Procedure, shortened: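 Compounds in 10-point 3-fold DMSO dilutions were tested in reactions started with substrate mix of 200 nM [3H]-SAM, 600 nM unlabeled SAM and 20 nM oligonucleosome. Reactions ran 120 min at room temperature and were quenched with 100 μM SAM. Labeled substrate was captured on streptavidin Flashplates and counted by scintillation to give IC50.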

Sequence of DOT1L(1-416) (Q8TEK3 1-416): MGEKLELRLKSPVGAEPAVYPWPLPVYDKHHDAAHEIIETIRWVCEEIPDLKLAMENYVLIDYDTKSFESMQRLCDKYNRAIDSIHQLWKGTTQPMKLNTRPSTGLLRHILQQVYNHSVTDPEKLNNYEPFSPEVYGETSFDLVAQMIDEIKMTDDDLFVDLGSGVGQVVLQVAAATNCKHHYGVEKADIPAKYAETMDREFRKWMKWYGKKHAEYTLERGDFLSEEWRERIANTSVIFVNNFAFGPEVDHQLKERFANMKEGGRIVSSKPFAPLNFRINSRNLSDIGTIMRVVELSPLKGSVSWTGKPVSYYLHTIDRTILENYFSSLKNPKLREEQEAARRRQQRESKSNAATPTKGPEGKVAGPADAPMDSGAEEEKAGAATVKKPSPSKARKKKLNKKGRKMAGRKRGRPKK

Row | IC50 | SMILES
1 | 100 to 1000 nM | CN(CC1CC(Cc2nc3cc(C(F)(F)F)ccc3[nH]2)C1)C[C@H]1C[C@@H](n2ccc3c(N)ncnc32)[C@H](O)[C@@H]1O (stereo partly drawn) [Compound 18, (1R,2S,3R,5R)-3-{4-amino-7H-pyrrolo[2,3-d]pyrimidin-7-yl}-5-({methyl[(3-{[5-(trifluoromethyl)-1H-1,3-benzodiazol-2-yl]methyl}cyclobutyl)methyl]amino}methyl)cyclopentane-1,2-diol]
2 | < 100 nM | CN(C[C@H]1C[C@@H](n2ccc3c(N)ncnc32)[C@H](O)[C@@H]1O)[C@H]1C[C@H](CCc2nc3cc(Br)ccc3[nH]2)C1 [Compound 55, (1R,2S,3R,5R)-3-(4-amino-7H-pyrrolo[2,3-d]pyrimidin-7-yl)-5-((((1s,3R)-3-(2-(5-bromo-1H-benzo[d]imidazol-2-yl)ethyl)cyclobutyl)(methyl)amino)methyl)cyclopentane-1,2-diol]
3 | < 100 nM | CN(C[C@H]1C[C@@H](n2ccc3c(N)ncnc32)[C@H](O)[C@@H]1O)[C@H]1C[C@H](CCc2nc3cc(C4(C)CCC4)ccc3[nH]2)C1 [Compound 39]
4 | < 100 nM | CN(C[C@H]1C[C@@H](n2ccc3c(N)ncnc32)[C@H](O)[C@@H]1O)C1CC(CCc2nc3cc(C4(C)CCC4)ccc3[nH]2)C1 (stereo partly drawn) [Compound 29, (1R,2S,3R,5R)-3-(4-amino-7H-pyrrolo[2,3-d]pyrimidin-7-yl)-5-((methyl(3-(2-(5-(1-methylcyclobutyl)-1H-benzo[d]imidazol-2-yl)ethyl)cyclobutyl)amino)methyl)cyclopentane-1,2-diol]
5 | < 100 nM | CN(C[C@H]1C[C@@H](n2ccc3c(N)ncnc32)[C@H](O)[C@@H]1O)[C@H]1C[C@@H](CCc2nc3cc(Br)ccc3[nH]2)C1 [Compound 47, (1R,2S,3R,5R)-3-(4-amino-7H-pyrrolo[2,3-d]pyrimidin-7-yl)-5-((((1r,38)-3-(2-(5-bromo-1H-benzo[d]imidazol-2-yl)ethyl)cyclobutyl)(methyl)amino)methyl)cyclopentane-1,2-diol]
6 | < 100 nM | CN(C[C@H]1O[C@@H](n2cnc3c(N)ncnc32)[C@H](O)[C@@H]1O)[C@H]1C[C@H](CCc2nc3cc(OC(F)(F)F)ccc3[nH]2)C1 [Compound 97]
7 | < 100 nM | CN(C[C@H]1C[C@@H](n2ccc3c(N)ncnc32)[C@H](O)[C@@H]1O)C1CC(CCc2nc3cc(OC(F)(F)F)ccc3[nH]2)C1 (stereo partly drawn) [Compound 24, (1R,2S,3R,5R)-3-(4-amino-7H-pyrrolo[2,3-d]pyrimidin-7-yl)-5-((methyl(3-(2-(5-(trifluoromethoxy)-1H-benzo[d]imidazol-2-yl)ethyl)cyclobutyl)amino)methyl)cyclopentane-1,2-diol]

The remaining lines, values behind:

Row | SMILES | IC50
8 | COCC(C)(C)c1ccc2[nH]c(CC[C@H]3C[C@@H](N(C[C@H]4O[C@@H](n5cnc6c(N)ncnc65)[C@H](O)[C@@H]4O)C(C)C)C3)nc2c1 [Compound 122, (2R,3R,4S,5R)-2-(6-amino-9H-purin-9-yl)-5-((isopropyl((1r,3S)-3-(2-(5-(1-methoxy-2-methylpropan-2-yl)-1H-benzo[d]imidazol-2-yl)ethyl)cyclobutyl)amino)methyl) tetrahydrofuran-3,4-diol] | < 100 nM
9 | CN(C[C@H]1O[C@@H](n2cnc3c(N)ncnc32)[C@H](O)[C@@H]1O)C1CC(CCc2nc3cc(C4COC4)ccc3[nH]2)C1 (stereo partly drawn) [Compound 64, (2R,3R,4S,5R)-2-(6-amino-9H-purin-9-yl)-5-((methyl(3-(2-(5-(oxetan-3-yl)-1H-benzo[d]imidazol-2-yl)ethyl)cyclobutyl)amino)methyl)tetrahydrofuran-3,4-diol] | 100 to 1000 nM
10 | CC(C)N(C[C@H]1C[C@@H](n2cnc3c(N)ncnc32)[C@H](O)[C@@H]1O)C1CC(CCc2nc3cc(C(C)(C)C)ccc3[nH]2)C1 (stereo partly drawn) [Compound 50, (1R,2S,3R,5R)-3-(6-amino-9H-purin-9-yl)-5-(((3-(2-(5-(tert-butyl)-1H-benzo[d]imidazol-2-yl)ethyl)cyclobutyl)(isopropyl)amino)methyl)cyclopentane-1,2-diol] | < 100 nM
11 | CC(C)N(C[C@H]1O[C@@H](n2cnc3c(N)ncnc32)[C@H](O)[C@@H]1O)[C@H]1C[C@@H](CCc2nc3cc(CC(F)(F)F)ccc3[nH]2)C1 [Compound 124, (2R,3R,4S,5R)-2-(6-amino-9H-purin-9-yl)-5-((isopropyl((1r,3S)-3-(2-(5-(2,2,2-trifluoroethyl)-1H-benzo[d]imidazol-2-yl)ethyl)cyclobutyl)amino)methyl) tetrahydrofuran-3,4-diol] | < 100 nM
12 | COCC(C)(C)c1ccc2[nH]c(CCC3CC(N(C)C[C@H]4O[C@@H](n5cnc6c(N)ncnc65)[C@H](O)[C@@H]4O)C3)nc2c1 (stereo partly drawn) [Compound 140, (2R,3R,4S,5R)-2-(6-amino-9H-purin-9-yl)-5-(((3-(2-(5-(1-methoxy-2-methylpropan-2-yl)-1H-benzo[d]imidazol-2-yl)ethyl)cyclobutyl) (methyl)amino)methyl) tetrahydrofuran-3,4-diol] | < 100 nM
13 | CC(C)N(C[C@H]1C[C@@H](n2ccc3c(N)ncnc32)[C@H](O)[C@@H]1O)C1CC(CCc2nc3cc(C(F)(F)F)c(Cl)cc3[nH]2)C1 (stereo partly drawn) [Compound 20, (1R,2S,3R,5R)-3-(4-amino-7H-pyrrolo[2,3-d]pyrimidin-7-yl)-5-(((3-(2-(6-chloro-5-(trifluoromethyl)-1H-benzo[d]imidazol-2-yl)ethyl)cyclobutyl)(isopropyl)amino)methyl)cyclopentane-1,2-diol] | < 100 nM
14 | CC(C)(C)c1ccc2[nH]c(CCC3CC(N(C[C@H]4C[C@@H](n5ccc6c(N)ncnc65)[C@H](O)[C@@H]4O)C4CCC4)C3)nc2c1 (stereo partly drawn) [Compound 43, (1R,2S,3R,5R)-3-(4-amino-7H-pyrrolo[2,3-d]pyrimidin-7-yl)-5-(((3-(2-(5-(tert-butyl)-1H-benzo[d]imidazol-2-yl)ethyl)cyclobutyl)(cyclobutyl)amino)methyl)cyclopentane-1,2-diol] | < 100 nM
15 | CN(C[C@H]1O[C@@H](n2ccc3c(N)ncnc32)[C@H](O)[C@@H]1O)[C@H]1C[C@H](CCc2nc3cc(OC(F)(F)F)ccc3[nH]2)C1 [Compound 95, (2R,3R,4S,5R)-2-(4-amino-7H-pyrrolo[2,3-d]pyrimidin-7-yl)-5-((methyl((1s,3R)-3-(2-(5-(trifluoromethoxy)-1H-benzo[d]imidazol-2-yl)ethyl)eyclobutyl)amino)methyl) tetrahydrofuran-3,4-diol] | < 100 nM
16 | CCN(C[C@H]1C[C@@H](n2ccc3c(N)ncnc32)[C@H](O)[C@@H]1O)[C@H]1C[C@H](CCc2nc3cc(C(C)(C)C)ccc3[nH]2)C1 [Compound 49, (1R,2S,3R,5R)-3-(4-amino-7H-pyrrolo[2,3-d]pyrimidin-7-yl)-5-((((1s,3R)-3-(2-(5-(tert-butyl)-1H-benzo[d]imidazol-2-yl)ethyl)cyclobutyl)(ethyl)amino)methyl)cyclopentane-1,2-diol] | < 100 nM
17 | CCN(C[C@H]1C[C@@H](n2ccc3c(N)ncnc32)[C@H](O)[C@@H]1O)C1CC(CCc2nc3cc(C(C)(C)C)ccc3[nH]2)C1 (stereo partly drawn) [Compound 25, (1R,2S,3R,5R)-3-(4-amino-7H-pyrrolo[2,3-d]pyrimidin-7-yl)-5-(((3-(2-(5-(tert-butyl)-1H-benzo[d]imidazol-2-yl)ethyl)cyclobutyl)(ethyl)amino)methyl)cyclopentane-1,2-diol] | < 100 nM
18 | CN(C[C@H]1O[C@@H](n2cnc3c(N)ncnc32)[C@H](O)[C@@H]1O)[C@H]1C[C@H](CCc2nc3cc(C4CCC4)ccc3[nH]2)C1 [Compound 132, (2R,3R,4S,5R)-2-(6-amino-9H-purin-9-yl)-5-((((1s,3R)-3-(2-(5-cyclobutyl-1H-benzo[d]imidazol-2-yl)ethyl)cyclobutyl) (methyl)amino)methyl) tetrahydrofuran-3,4-diol] | < 100 nM
19 | COCC(C)(C)c1ccc2[nH]c(CC[C@H]3C[C@H](N(C[C@H]4O[C@@H](n5cnc6c(N)ncnc65)[C@H](O)[C@@H]4O)C(C)C)C3)nc2c1 [Compound 121, (2R,3R,4S,5R)-2-(6-amino-9H-purin-9-yl)-5-((isopropyl((1s,3R)-3-(2-(5-(1-methoxy-2-methylpropan-2-yl)-1H-benzo[d]imidazol-2-yl)ethyl)cyclobutyl)amino)methyl) tetrahydrofuran-3,4-diol] | < 100 nM
20 | CC(C)N(C[C@H]1O[C@@H](n2ccc3c(N)ncnc32)[C@H](O)[C@@H]1O)[C@H]1C[C@@H](CCc2nc3cc(C(C)(C)C)ccc3[nH]2)C1 [Compound 90, (2R,3R,4S,5R)-2-(4-amino-7H-pyrrolo[2,3-d]pyrimidin-7-yl)-5-((((1r,3S)-3-(2-(5-(tert-butyl)-1H-benzo[d]imidazol-2-yl)ethyl)cyclobutyl)(isopropyl)amino)methyl)tetrahydrofuran-3,4-diol] | < 100 nM
21 | CN(C[C@H]1O[C@@H](n2cnc3c(N)ncnc32)[C@H](O)[C@@H]1O)C1CC(CCc2nc3cc(C4(C#N)CC4)ccc3[nH]2)C1 (stereo partly drawn) [Compound 130, 1-(2-(2-(3-((((2R,3S,4R,5R)-5-(6-amino-9H-purin-9-yl)-3,4-dihydroxytetrahydro-furan-2-yl)methyl)(methyl)amino)cyclobutyl)ethyl)-1H-benzo[d]imidazol-5-yl)cyclo-propanecarbonitrile] | < 100 nM
22 | CC(C)N(C[C@H]1C[C@@H](n2ccc3c(N)ncnc32)[C@H](O)[C@@H]1O)[C@H]1C[C@@H](CCc2nc3cc(C(C)(C)C)ccc3[nH]2)C1 [Compound 41, (1R,2S,3R,5R)-3-(4-amino-7H-pyrrolo[2,3-d]pyrimidin-7-yl)-5-((((1r,3S)-3-(2-(5-(tert-butyl)-1H-benzo[d]imidazol-2-yl)ethyl)cyclobutyl)(isopropyl)amino)methyl)cyclopentane-1,2-diol] | < 100 nM
23 | CN(C[C@H]1O[C@@H](n2cnc3c(N)ncnc32)[C@H](O)[C@@H]1O)[C@H]1C[C@@H](CCc2nc3cc(C4COC4)ccc3[nH]2)C1 [Compound 63] | 100 to 1000 nM
24 | CC(C)N(C[C@H]1O[C@@H](n2cnc3c(N)ncnc32)[C@H](O)[C@@H]1O)[C@H]1C[C@@H](CCc2nc3cc(C4CC4)ccc3[nH]2)C1 [Compound 116, (2R,3R,4S,5R)-2-(6-amino-9H-purin-9-yl)-5-((((1r,3S)-3-(2-(5-cyclopropyl-1H-benzo[d]imidazol-2-yl)ethyl)cyclobutyl) (isopropyl)amino)methyl)tetrahydrofuran-3,4-diol] | < 100 nM

Source: patent publication US8580762B2, “Substituted purine and 7-deazapurine compounds” (Epizyme, Inc., priority 2010, dated 2013)
